Data on two substances can be found in article PMC4017264 (Molecular Cell, 2014).

Experiment [1] relates to LUBAC-induced NFκB activity. In words: NFκB luciferase reporter assay (LUBAC-induced). Format: cell-based. The settings on record: HEK293T cells; for inhibition of NFκB activity induced by HOIP PIM pocket mutants (N102D, Y82A) + HOIL-1 (in words): compared with wild-type HOIP. How it is done:
Cells were cotransfected with the NFκB luciferase reporter construct pBIIXluc and the thymidine kinase-renilla luciferase construct in addition to other vectors used in the study. After 24 hr, cells were lysed in passive lysis buffer (Promega), and luciferase activity was recorded. Protein expression levels were determined by western blotting of cell lysates. […]
(§1) siOTULIN: […], siMM […]
Luciferase reporter assays
Cells were co-transfected with the NF!B luciferase reporter construct pBIIXluc and the thymidine kinase-renilla luciferase construct to enable normalization of transfection efficiency. Cells were co-transfected with additional plasmids as indicated. After 24 h cells were lysed in 75 %L passive lysis buffer (Promega) and luciferase activity was measured on a FLUOstar Omega
Microplate Reader (BMG LABTECH GmbH, Offenburg, Germany) using the DualLuciferase ® Assay System (Promega) according to the manufacturer’s instructions. Protein expression levels were determined by SDS-PAGE and Western blotting of cell lysates as indicated. The data shown represents mean ± SEM. A two-tailed Student´s t -test was applied to evaluate statistical
(A reporter such as luciferase makes a cellular process visible.)

The test system of experiment [2] is endogenous LUBAC (HOIP, HOIL-1, SHARPIN). The experiment in a line: coimmunoprecipitation of endogenous LUBAC components with HA-tagged OTULIN. The settings on record: HA-OTULIN variants in HEK293T cells, anti-HA IP, western blot. Format: cell-based. The protocol:
Transfected HEK293T or U2OS and NOD2 cells were lysed in the presence of protease and phosphatase inhibitors. Clarified lysates were incubated overnight with anti-V5 and anti-HA-agarose resin. […]
as §1
Immunoprecipitation of HOIP-V5 and HA-OTULIN
HEK293T or U2OS/NOD2 cells were transfected as indicated. The cells were lysed in IP buffer buffer (25 mM HEPES pH 7.4, 150 mM KCl, 2 mM MgCl2, 1 mM EGTA, 0.5% (v/v) Triton X-100) supplemented with 5 mM NEM (Sigma-Aldrich), cOmplete protease inhibitor cocktail (Roche) and PhosSTOP
(Roche). After 30 minutes on ice, the lysates were cleared by centrifugation and incubated overnight at 4 °C with anti-V5-agarose resin or anti-HA-agarose resin. The beads were washed four times in ice-cold IP buffer and the precipitated material was eluted with 0.2 M glycine, pH 2.5. […]
For orientation: Immunoblotting shows a protein as a band on a membrane.

Experiment [3] concerns HOIP PUB domain (15N HOIP 1-184). In words: NMR binding (chemical shift perturbation) to 15N-labeled HOIP PUB domain. On the set-up: species or system Human. The settings on record: 15N BEST-TROSY NMR, 100 μM 15N HOIP 1-184, 20 mM phosphate pH 6.8, 50 mM NaCl, 2 mM DTT, 298K. How it is done: Standard triple-resonance experiments (HNCA, HN(CO)CA, HNCACB, CBCA(CO)NH, and HBHA(CO)NH) were acquired for the assignment of HOIP resonances. Constant time ^13C and ^13C-HSQC were acquired for the methyl and aromatic regions. In addition, (HB)CB(CGCD)HD and (HB)CB(CGCDCE)HE experiments coupled the Cβ of tyrosine resonances to the Hδ and Hε positions of the tyrosine ring, respectively.
Fluorescence polarization binding assays
10 µl of 100 nM FITC-Ahx peptides of either OTULIN (49-67) or p97 (797-806) were aliquoted into a 384-well low volume plate (Corning). Serial dilutions of HOIP PUB into FP assay buffer (20 mM Tris pH 7.4, 100 mM NaCl, 1 mM DTT) were prepared and 10 µl of this was aliquoted to FITC-Ahx peptide-containing wells. Fluorescence polarization was recorded on a PheraStar plate reader (BMG Labtech) using an optics module with $ex = 485 nm and $em = 520 nm. To derive binding constants (KD), polarization values were fitted to a one-site binding model using Graphpad Prism 5.
Nuclear Magnetic Resonance Spectroscopy
Uniformly labeled 15N or 13C, 15N samples of HOIP were prepared following growth in 2M9 medium supplemented with either 15N NH4Cl or 13C glucose.
Proteins were purified as described above and all samples were exchanged into NMR sample buffer (20 mM Na2HPO4/NaH2PO4 pH 6.8, 50 mM NaCl, 2 mM DTT). Lyophilized OTULIN and p97 PIM peptides were reconstituted in NMR sample buffer and the pH adjusted to pH 6.8 prior to use. NMR data were acquired at 298K on Bruker Avance III 600 MHz and Avance2+ 700
MHz spectrometers, equipped with cryogenic triple resonance TCI probes.
Standard triple resonance experiments (HNCA, HN(CO)CA, HNCACB, CBCA(CO)NH, HBHA(CO)NH) were acquired for the assignment of backbone
HOIP resonances. In addition, constant-time (ct) 13C and 13C-HSQC were acquired for the methyl and aromatic regions. For assignment of the H",H# resonances of HOIP tyrosines, (HB)CB(CGCD)HD and (HB)CB(CGCDCE)HE spectra were acquired, which coupled the C$ position of the tyrosine resonances to the H"/H# position of the tyrosine ring respectively. […]

The test system of experiment [4] is HOIP 1-184. The experiment in a line: analytical size-exclusion chromatography binding. On the set-up: species or system Human. The settings on record: Superdex 75; 30 µM HOIP, 25 µM OTULIN, 20 mM Tris pH 7.4, 150 mM NaCl, 2 mM DTT, room temperature 15 min. The protocol: All mutations were generated by site directed mutagenesis using the QuikChange method with KOD HotStart DNA polymerase.
Protein expression and purification
HOIP PUB domain constructs were expressed in Rosetta2 (DE3) pLacI cells.
Cells were grown at 30 °C in 2 xTY medium supplemented with 30 µg/ml kanamycin and 34 µg/ml chloramphenicol to an OD600 of 0.8. The culture was cooled to 18 °C prior to overnight induction with 400 µM IPTG. Cells were resuspended and lysed by sonication in lysis buffer (20 mM Tris pH 7.4, 300 mM NaCl, 50 mM imidazole, 2 mM #-mercaptoethanol, lysozyme, DNaseI
(Sigma) and protease inhibitor cocktail (Roche)). HOIP was purified by immobilized metal affinity chromatography using a HisTrap column (GE Life Sciences). The His6-tag was cleaved by overnight incubation with 3C protease. The protein was buffer exchanged into 20 mM Tris pH 8.5, 2 mM DTT and purified further by anion exchange chromatography (ResourceQ, GE Life Sciences). Eluted HOIP was then subjected to size exclusion chromatography (HiLoad 16/60 Superdex 75, GE Life Sciences) in buffer containing 20 mM Tris pH 8.5, 150 mM NaCl, 2 mM DTT. The resultant fractions were judged to be 99% pure following SDS-PAGE analysis and flash frozen. OTULIN was expressed and purified according to (Keusekotten et al., […]
kind gift from Mark Allen (MRC LMB).
Analytical size exclusion chromatography binding studies […]

In experiment [5] the test system is HOIP (Met1-linked polyUb). The experiment in a line: HOIP autoubiquitination, purification of endogenous Met1-polyUb conjugates (M1-SUB pulldown). Format: cell-based. The note with it: U2OS/NOD2 cells, ectopic OTULIN variants, basal, identical with L18-MDP or TNF, immunoblot. An excerpt: Antibodies and affinity resin
The following antibodies and reagents were used according to the manufacturers’ instructions: anti-HA-agarose resin (A2095), anti-V5-agarose resin (A7345) and rabbit polyclonal anti-HOIP/RNF31 (SAB2102031, Sigma-Aldrich), rat monoclonal anti-HA (#11867423991, Roche Diagnostics, Burgess Hill, UK), mouse monoclonal anti-ubiquitin (IMG-5021, Imgenex, San Diego, CA), rabbit polyclonal anti-SHARPIN (#14626-1-AP, ProteinTech, Chicago, IL), rabbit polyclonal anti-RBCK1/HOIL-1 (NBP1-88301, Novus Biologicals, Littleton, CO), mouse monoclonal anti-V5 (MCA1360, AbD Serotec, Kidlington, UK), mouse monoclonal anti-$-actin (MAB1501, Chemicon, Millipore, Billerica, MA), rabbit polyclonal anti-HOIL-1, rabbit polyclonal anti-HOIP/RNF31
(Sigma), mouse monoclonal anti-p97 (Thermo Scientific). The
Fam105B/OTULIN antibody was previously described (Keusekotten et al., 2013). […]
HEK293ET, RPE1 and U2OS cells were collected, washed with PBS and lysed on ice for 30 minutes in SEC cell extraction buffer (150 mM NaCl, 50 mM Tris-HCl pH 7.4, 1 mM MgCl2, 1 mM DTT, 0.3% NP40, protease and (Roche)). […] In total 3.1 mg protein extract was analyzed on a Superdex 200 10/300 GL column (GE Life Sciences). […]

Experiment [6] has as its system HOIP (Met1-linked polyUb). The note with it: overexpression of catalytically inactive OTULIN, ref Fiil et al., 2013, Keusekotten et al.; cited from earlier work. The source says:
So far, the cellular consequences of OTULIN-LUBAC interaction are unclear. […] We wondered whether this depended on the formation of the OTULIN-HOIP complex or whether OTULIN would act in trans on the complex. When coexpressed with HOIL-1, HOIP PUB binding mutants autoubiquitinated in cells exp ...

As to “OTULIN: full-length OTULIN (aa 1–352), Met1-specific deubiquitinase”, the “inhibition of NFκB activity induced by wild-type LUBAC (in words)” value in experiment [1] (HOIL-1 + wild-type HOIP) is listed as “abrogated NFκB activity”. Moreover, the “inhibition of NFκB activity induced by HOIP PIM pocket mutants (N102D, Y82A) + HOIL-1 (in words)” value is “less effective in inhibiting activity” in experiment [1] and “reduced the ability of OTULIN to antagonize LUBAC-induced NFκB activity” in experiment [1] (listed as wild-type OTULIN). Further, in experiment [2], the “coimmunoprecipitation of endogenous LUBAC components (in words)” value is given as “coimmunoprecipitated all proteins from the endogenous LUBAC complex”. The “binding / chemical shift perturbations of HOIP PUB domain (in words)” value in experiment [3] is recorded as “pattern of HOIP CSPs was identical”. Further, the “binding to HOIP aa 1-184 (in words)” value in experiment [4] was “able to bind”.
Turning to “OTULIN C129A: catalytically inactive OTULIN C129A mutant (CA)”, the “HOIP autoubiquitination with Met1-linked polyUb (in words)” value in experiment [5] was “led to extensive HOIP ubiquitination”. In experiment [6], the “HOIP autoubiquitination with Met1-linked polyUb (in words), previously shown” value is given as “lead to the autoubiquitination of HOIP with Met1-linked polyUb chains”.
